According to article PMC10451668, “Natural Acetogenins, Chatenaytrienins-1, -2, -3 and -4, Mitochondrial Potential Uncouplers and Autophagy Inducers—Promising Anticancer Agents” (Antioxidants, 2023):

What was measured:
Type in all cases: cell-based, human
[1] = Cytotoxicity assay (7-AAD viability, flow cytometry); settings: human; Hek293, conditionally normal line; ± standard error of the mean, 95% CI in parenthesis
From the text: (§1) Cells, including Jurkat E6.1 (human leukemic T cell lymphoblasts, catalogue no. 88042803), K562 (human chronic myelogenous leukemia cells, catalogue no. 89121407), U937 (human histiocytic lymphoma cells, catalogue no. 85011440), HL60 (human promyelocytic leukemia cells, catalog no. 98070106), HEK293 (human embryonic kidney cells with adenovirus, catalog no. 85120602), and human lung fibroblasts Ce (catalogue no. 90011883), were purchased from the European Collection of Authenticated Cell Cultures (UK Health Security Agency) and cultured according to standard protocols using sterile techniques. […] Cells were maintained in RPMI 1640 (Jurkat, K562, U937, and HL60) and DME M (fibroblast and HEK293) (Gibco) supplemented with […] glutamine, 10% FBS (Sigma), and 100 units/mL penicillin-streptomycin (Sigma). All types of cells were grown under an atmosphere of 5% CO2 at 37 °C. The cells were subcultured at 2–3-day intervals. Cells were then seeded in 24-well plates at 5 × 10^4 cells per well and incubated overnight. Jurkat, K562, U937, HL60, HEK293, and fibroblast cells were subcultured at 2-day intervals with a seeding density of 1 × 10^5 cells per well in 24-well plates in RPMI with 10% FBS.
(§2) Viability (live/dead) assessment was performed by staining cells with 7-AAD (7-aminoactinomycin D; Biolegend). After treatment, cells were harvested, washed 1–2 times with phosphate-buffered saline (PBS), and centrifuged at 400× g for 5 min. Cell pellets were resuspended in 200 µL of flow cytometry staining buffer (PBS without Ca^2+ and Mg^2+, 2.5% FBS) and stained with […] of 7-AAD staining solution for 15 min at room temperature in the dark. Samples were assessed using the NovoCyte Penteon Flow Cytometer System (Agilent, 5301 Stevens Creek Blvd., Santa Clara, CA, USA). Detection of 7-AAD emission was collected through a 675/30 nm filter in the FL4 channel.

[2] = test system: HL60; assay: as above; settings: Homo sapiens, HL-60, ± standard error of the mean, 95% CI in parenthesis
From the text: as §1, §2

[3] = test system: Jurkat; assay: as above; settings: Homo sapiens, ± standard error of the mean, 95% CI in parenthesis
From the text: as §1, §2

[4] = test system: K562; assay: as above; settings: Homo sapiens, ± standard error of the mean, 95% CI in parenthesis
From the text: as §1, §2

[5] = test system: U937; assay: as above; settings: Homo sapiens, U-937, ± standard error of the mean, 95% CI in parenthesis
From the text: as §1, §2

[6] = test system: Jurkat cells; assay: Detection of mitodamage: mitochondrial membrane potential and apoptosis (MitoSense Red, annexin V, 7-AAD); settings: compound at CC50, 4 h
From the text: The use of reagents MitoSense Red, annexin V, and 7-AAD in the Millipore FlowCellect™ MitoDamage Kit allowed us to gain information on early, mid, and late apoptosis with one simple assay. […] After this time, the cells were dissociated using an accutase solution, stained, and analyzed using the NovoCyte Penteon Flow Cytometer System (Agilent, 5301 Stevens Creek Blvd., Santa Clara, CA, USA), according to the manufacturer’s protocols for the FlowCellect™ MitoDamage Kit and FlowCellect™ Oxidative Stress Characterization Kit (Merck).
Detection of mitochondrial potential dissipation using MitoSense Red, annexin V, and 7-AAD provided a simultaneous measurement of three important parameters of the cell state within the same cell sample: the state of the mitochondrial potential (Δψ), detected by the membrane-penetrating MitoSense Red dye; the expression of phosphatidylserine on the cell surface of apoptotic cells, assessed by the binding of annexin V to externalized phosphatidylserine; and the binding of 7-AAD to DNA in cells in the late stages of apoptosis. Multiparametric evaluation of these indicators of cell viability made it possible to determine the correlation and relationship between oxidation dissipation and phosphorylation with apoptosis.

[7] = test system: Jurkat cells; assay: Oxidative stress and early apoptosis (MitoSOX Red and annexin V, MitoStress Kit); settings: compound at CC50, 4 h
From the text: Changes in the mitochondrial membrane potential (ΔΨ) in Jurkat cells induced by treatment with the synthesized compounds were detected using MitoSOX Red, a positively charged probe that accumulates rapidly in mitochondria and as such can be used to detect superoxide/ROS production within mitochondria using fluorometry, microscopy, or flow cytometry. Live cells induced a low level of MitoSOX Red fluorescence, while cells with scattered mitochondrial membrane potential caused much higher MitoSOX Red fluorescence. Annexin V is a dye commonly used to detect early signs of apoptosis. […] Thus, using two different dyes, MitoSOX Red and annexin V (CF488A), in the FlowCellect™ MitoStress Kit (FCCH100109), we analyzed the mitochondrial membrane potential dissipation and associated apoptosis in Jurkat cells in response to the synthesized chatenaytrienins.
Therefore, simultaneous detection of mitochondrial superoxide generation (detected by MitoSOX Red membrane-penetrating dye) and expression of phosphatidylserine on the cell surface of apoptotic cells (assessed by binding of annexin V) in the same cell sample provides an accurate evaluation of the ability of the test compound to initiate oxidative stress in cell culture and induce apoptosis.

CCCCCCCCCC/C=C\CC/C=C\CC/C=C\CCCCCCCCCCC1=C[C@H](C)OC1=O [compound 1, chatenaytrienin-1]
CC50 [1]: 0.53 ± 0.02 µM | CC50 [2]: 0.15 ± 0.01 µM | CC50 [3]: 0.09 ± 0.02 µM | CC50 [4]: 0.1 ± 0.03 µM | CC50 [5]: 0.09 ± 0.02 µM | cells in late apoptosis (stained with 7-AAD) ([6]; Jurkat): 15.11% | Jurkat tumor cells with the Δψ dissipation phenomenon ([6]; MitoSense Red): 83.69% | cells demonstrating oxidative stress along with the marker of early apoptosis, annexin ([7]; MitoSOX Red and annexin V): 10.53% | cells in early apoptosis ([7]; annexin V): 75%
